Assay results as given in patent US12178821B2, “Combination therapies for the treatment of cancer” (Curis, Inc., priority 2021, dated 2024).
“Also recorded” adds a separate entry of the source. Where two headings read alike, the source gives them in different places.

Key:
F-36P = experiment: CellTiter Glo cell viability assay, GI50, 72 hrs; format: cell-based
Description: (§1) CellTiter Glo cell viability assay was used to evaluate the antitumor effects of Compound 1 in combination with AML SOC drugs daunorubicin, Ara-C, decitabine, azacitidine and venetoclax in FLT3-WT AML cell lines THP-1, F-36P, OCl-AML2 and GDM-1. GI50 (the concentration for 50% of maximal inhibition of cell proliferation) was determined for each drug in AML cell lines.
(§2) Cells were treated for 72 hrs. Relative cell viability was measured by CellTiter Glo assay (Promega, Madison, WI) at 0 and at 72 hrs. GI50 was calculated using GraphPad Prism 8.0 software.

GDM-1 = experiment: CellTiter Glo cell viability assay, GI50, 72 hrs; format: cell-based
Description: as §1, §2

OC1-AML2 = experiment: CellTiter Glo cell viability assay, GI50, 72 hrs; format: cell-based
Description: as §1, §2

THP-1 = experiment: CellTiter Glo cell viability assay, GI50, 72 hrs; format: cell-based
Description: as §1, §2

[1] = concentration used in the combination experiments; cited from earlier work
[2] = tested on: FLT3-WT AML cell lines THP-1, F-36P, OCl-AML2 and GDM-1; experiment: CellTiter Glo combination experiments summarised over the cell line panel; format: cell-based; settings: 4 FLT3-WT AML cell lines, 96 hrs, clinically relevant drug concentration
Description: as §1, with “lines. Either GI50 (below peak plasma concentration) or peak plasma concentration (if GI50 was higher than peak plasma concentration) of each drug was used as clinically relevant concentration for combination experiments.” for “lines.”
Cells were treated continuously with clinically relevant drug concentration for 96 hrs. Relative cell viability was measured by CellTiter Glo assay (Promega, Madison, WI) at 0 and at 96 hrs according to manufacturer's instructions. All values are presented as mean±SE. Cell viability assay data were analyzed with one-way ANOVA. P values less than 0.05 were considered significant. Statistical analysis was performed using GraphPad Prism 8.0 software. + Less than 50% growth inhibition, p<0.05; ++ 50-100% growth inhibition, p<0.05; +++ Induction of cell death (cytotoxic effect), p<0.05; NS, not significant; ND, not defined. *Venetoclax resistant cell line, **Azacitidine/Decitabine resistant cell line. Clinically relevant conc (peak plasma conc): Compound 1-10 μM; Venetoclax—1 μM; and Azacitidine—4 μM.

[3] = F-36P cells, treated for 72 hrs, CellTiter Glo, read-out: GI50
[4] = OC1-AML2 cells, treated for 72 hrs, CellTiter Glo, read-out: GI50
[5] = Homo sapiens, GDM-1 cells, treated for 72 hrs, CellTiter Glo, read-out: GI50
[6] = Homo sapiens, THP-1 cells, treated for 72 hrs, CellTiter Glo, read-out: GI50

GI50 (THP-1; THP-1 cells, treated for 72 hrs, CellTiter Glo, read-out: GI50) [nM]	GI50 (THP-1; [6]) [nM]	SMILES	GI50 (F-36P; [3]) [nM]	GI50 (GDM-1; GDM-1 cells, treated for 72 hrs, CellTiter Glo, read-out: GI50) [nM]	GI50 (OC1-AML2; [4]) [µM]	GI50 (GDM-1; [5]) [nM]	resistance of the cell line to the treatment (OC1-AML2; OCl-AML2)	Clinically relevant conc (peak plasma conc) [1] [µM]	antitumor effect of the combination over the cell line panel, in words [2]	GI50 (F-36P; 72 h) [nM]	GI50 (GDM-1; Homo sapiens, GDM-1, 72 h) [nM]	GI50 (OC1-AML2; 72 h) [µM]	GI50 (THP-1; Homo sapiens, THP-1, 72 h) [nM]
150		Nc1ccn([C@@H]2O[C@H](CO)[C@@H](O)[C@@H]2O)c(=O)n1 [Ara-C]	150	5	4								
	3000	Nc1ncn([C@@H]2O[C@H](CO)[C@@H](O)[C@H]2O)c(=O)n1 [Azacitidine]	4000		30	2000	resistant	4					
	> 20000	Cc1cc(-c2nc(C(=O)Nc3cc4oc(N5CCOCC5)nc4nc3N3CC[C@@H](O)C3)co2)ccn1 [Compound 1]	> 20000		13	> 20000		10	potentiated antitumor effects of azacitidine in 3 of 4 FLT3-WT AML cell lines; also recorded: significantly potentiated antitumor effects of azacitidine+venetoclax in all AML FLT3-WT cell lines				
		COc1cccc2c1C(=O)c1c(O)c3c(c(O)c1C2=O)C[C@@](O)(C(C)=O)C[C@@H]3O[C@H]1C[C@H](N)[C@H](O)[C@H](C)O1 [Daunorubicin]								100	10	0.005	5
		Nc1ncn([C@H]2C[C@H](O)[C@@H](CO)O2)c(=O)n1 [Decitabine]								200	80	18	150
	18000	CC1(C)CCC(CN2CCN(c3ccc(C(=O)NS(=O)(=O)c4ccc(NCC5CCOCC5)c([N+](=O)[O-])c4)c(Oc4cnc5[nH]ccc5c4)c3)CC2)=C(c2ccc(Cl)cc2)C1 [Venetoclax]	18000		0.002	5		1					
